Laboratory results published in article PMC10456528, “Purification and Molecular Docking Study on the Angiotensin I-Converting Enzyme (ACE)-Inhibitory Peptide Isolated from Hydrolysates of the Deep-Sea Mussel Gigantidas vrijenhoeki” (Marine Drugs, 2023).
Ends that are not written are not given here. Peptide text beside a SMILES is read from it.

Each molecule was assayed against T1, angiotensin I-converting enzyme (ACE) (Homo sapiens, UniProt P12821) (assay: not given). Conditions: not given.
Target sequence in this assay (P12821 30-1256): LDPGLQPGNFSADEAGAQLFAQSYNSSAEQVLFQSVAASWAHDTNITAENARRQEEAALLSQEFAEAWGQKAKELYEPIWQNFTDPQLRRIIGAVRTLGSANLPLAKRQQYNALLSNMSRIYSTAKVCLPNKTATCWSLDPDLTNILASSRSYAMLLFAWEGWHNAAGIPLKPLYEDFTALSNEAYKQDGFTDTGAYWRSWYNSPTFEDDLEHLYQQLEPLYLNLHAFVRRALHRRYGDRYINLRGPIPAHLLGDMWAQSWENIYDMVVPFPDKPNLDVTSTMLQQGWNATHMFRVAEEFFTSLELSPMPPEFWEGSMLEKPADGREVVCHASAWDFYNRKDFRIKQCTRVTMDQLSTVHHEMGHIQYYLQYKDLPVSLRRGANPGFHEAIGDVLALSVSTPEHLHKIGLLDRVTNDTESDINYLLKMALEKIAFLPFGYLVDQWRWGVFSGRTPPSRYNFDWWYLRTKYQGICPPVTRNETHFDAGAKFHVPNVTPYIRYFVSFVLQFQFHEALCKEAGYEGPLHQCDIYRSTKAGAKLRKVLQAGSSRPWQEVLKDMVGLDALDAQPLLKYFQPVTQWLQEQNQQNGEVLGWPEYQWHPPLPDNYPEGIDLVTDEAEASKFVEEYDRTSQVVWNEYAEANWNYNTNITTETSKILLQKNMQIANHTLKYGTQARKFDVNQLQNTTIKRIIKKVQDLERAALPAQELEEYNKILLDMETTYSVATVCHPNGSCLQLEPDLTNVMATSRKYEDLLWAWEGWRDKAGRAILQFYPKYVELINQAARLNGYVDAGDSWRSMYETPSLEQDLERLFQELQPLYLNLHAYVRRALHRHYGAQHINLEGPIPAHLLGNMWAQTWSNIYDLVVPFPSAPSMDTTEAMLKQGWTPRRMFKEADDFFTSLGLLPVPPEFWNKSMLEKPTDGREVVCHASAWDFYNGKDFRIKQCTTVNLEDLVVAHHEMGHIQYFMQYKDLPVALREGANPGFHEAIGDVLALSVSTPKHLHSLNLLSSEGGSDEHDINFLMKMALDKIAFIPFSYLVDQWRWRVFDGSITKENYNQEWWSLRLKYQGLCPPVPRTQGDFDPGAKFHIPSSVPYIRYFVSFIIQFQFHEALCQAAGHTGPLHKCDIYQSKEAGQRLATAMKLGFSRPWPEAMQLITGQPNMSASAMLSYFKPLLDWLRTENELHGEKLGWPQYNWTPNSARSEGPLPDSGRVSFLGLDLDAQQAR

Molecule	IC50 of ACE inhibitory activity (enzyme activity, Dojindo ACE kit, synthetic peptide) [nM]
KVHL [G. vrijenhoeki peptide (GVP)-3]	292
ALRPKF [G. vrijenhoeki peptide (GVP)-7]	24
KLLWNGKM [G. vrijenhoeki peptide (GVP)-10]	7
PSLVG [G. vrijenhoeki peptide (GVP)-5]	582
PGLADMR [G. vrijenhoeki peptide (GVP)-8]	513
KLQE [G. vrijenhoeki peptide (GVP)-1]	2960
KVLH [G. vrijenhoeki peptide (GVP)-2]	162
YALPHAL [G. vrijenhoeki peptide (GVP)-11]	795
LNSL [G. vrijenhoeki peptide (GVP)-6]	1390

What follows are molecules tested against T1, angiotensin I-converting enzyme (ACE) (assay: ACE inhibitory activity assay (Dojindo ACE Kit)). Conditions: synthetic peptides with the sequences identified in <1 kDa fraction; triplicate experiments.
Format: biochemical
Set-up: purchased Dojindo Laboratories, Kumamoto, Japan
Description: ACE inhibitory activity was measured using the Dojindo ACE Kit-WET kit (Dojindo Laboratories, Kumamoto, Japan), according to the manufacturer’s instructions. The ACE-inhibitory activity was calculated as follows: ACE inhibitory activity (%)=Acontrol−Asample/Acontrol−Ablank×100% where Acontrol is the absorbance of the positive control, Ablank is the absorbance of the blank containing distilled water, and Asample is the absorbance of the sample. The IC50 value was determined as the concentration of inhibitor required to inhibit 50% of the ACE activity.
Target sequence in this assay (P12821 30-1306, species assumed): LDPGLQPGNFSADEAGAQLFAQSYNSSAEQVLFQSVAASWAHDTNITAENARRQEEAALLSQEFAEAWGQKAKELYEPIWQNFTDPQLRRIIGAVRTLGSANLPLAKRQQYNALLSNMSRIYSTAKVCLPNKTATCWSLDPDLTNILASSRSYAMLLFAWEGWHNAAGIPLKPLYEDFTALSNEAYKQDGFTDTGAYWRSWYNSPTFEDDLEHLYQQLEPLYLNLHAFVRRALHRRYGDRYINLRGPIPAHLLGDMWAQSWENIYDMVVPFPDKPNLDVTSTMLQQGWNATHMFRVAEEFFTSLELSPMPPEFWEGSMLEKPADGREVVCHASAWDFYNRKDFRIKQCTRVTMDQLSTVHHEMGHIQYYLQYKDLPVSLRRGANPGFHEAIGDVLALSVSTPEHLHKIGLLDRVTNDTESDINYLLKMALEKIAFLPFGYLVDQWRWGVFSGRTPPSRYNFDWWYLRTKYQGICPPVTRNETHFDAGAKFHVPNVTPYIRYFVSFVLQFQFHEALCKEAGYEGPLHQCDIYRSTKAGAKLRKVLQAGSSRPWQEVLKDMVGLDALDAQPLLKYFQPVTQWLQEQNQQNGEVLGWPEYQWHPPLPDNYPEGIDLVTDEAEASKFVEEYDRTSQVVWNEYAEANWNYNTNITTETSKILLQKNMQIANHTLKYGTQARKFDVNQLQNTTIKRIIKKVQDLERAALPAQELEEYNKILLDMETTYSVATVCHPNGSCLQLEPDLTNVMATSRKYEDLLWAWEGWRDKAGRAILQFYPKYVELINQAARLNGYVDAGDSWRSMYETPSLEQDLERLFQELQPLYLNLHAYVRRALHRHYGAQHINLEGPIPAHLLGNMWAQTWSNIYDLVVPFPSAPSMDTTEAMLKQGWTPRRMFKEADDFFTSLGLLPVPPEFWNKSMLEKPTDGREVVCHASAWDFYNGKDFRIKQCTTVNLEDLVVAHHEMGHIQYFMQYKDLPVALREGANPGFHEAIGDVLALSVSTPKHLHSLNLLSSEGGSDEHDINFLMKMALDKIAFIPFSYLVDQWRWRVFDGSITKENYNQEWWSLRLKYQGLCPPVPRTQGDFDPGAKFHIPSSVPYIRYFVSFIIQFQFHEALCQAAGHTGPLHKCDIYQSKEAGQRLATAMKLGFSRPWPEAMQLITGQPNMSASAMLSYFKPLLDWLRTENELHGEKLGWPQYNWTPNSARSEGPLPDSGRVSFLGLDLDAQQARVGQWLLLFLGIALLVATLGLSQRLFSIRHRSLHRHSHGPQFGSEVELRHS

Molecule	IC50 [nM]
CC(C)C[C@H](NC(=O)[C@@H](N)CCCCN)C(=O)N[C@@H](CCC(N)=O)C(=O)N[C@@H](CCC(=O)O)C(=O)O [GVP-1, KLQE] (H-KLQE-OH)	2960 ± 165
CC(C)C[C@H](NC(=O)[C@@H](NC(=O)[C@@H](N)CCCCN)C(C)C)C(=O)N[C@@H](Cc1c[nH]cn1)C(=O)O [GVP-2, KVLH] (H-KVLH-OH)	162 ± 2
CC(C)C[C@H](NC(=O)[C@H](Cc1c[nH]cn1)NC(=O)[C@@H](NC(=O)[C@@H](N)CCCCN)C(C)C)C(=O)O [GVP-3, KVHL] (H-KVHL-OH)	292 ± 13
CC(C)C[C@H](N)C(=O)N[C@H](C(=O)N[C@@H](CCCNC(=N)N)C(=O)O)C(C)C [GVP-4, LVR] (H-Leu-Val-Arg-OH; N-terminus and C-terminus assumed)	67 ± 5
CC(C)C[C@H](NC(=O)[C@H](CO)NC(=O)[C@H](CC(N)=O)NC(=O)[C@@H](N)CC(C)C)C(=O)O [GVP-6, LNSL] (H-LNSL-OH; N-terminus and C-terminus assumed)	1390 ± 11
CC(C)C[C@H](NC(=O)[C@@H](N)CC(C)C)C(=O)N[C@@H](CCCNC(=N)N)C(=O)O [GVP-9, LLR]	435 ± 7
ALRPKF [GVP-7, ALRPKF]	24 ± 17
KLLWNGKM [GVP-10, KLLWNGKM]	7 ± 2
PGLADMR [GVP-8, PGLADMR]	513 ± 2
PSLVG [GVP-5, PSLVG]	582 ± 8
YALPHAL [GVP-11, YALPHAL]	795 ± 15
